Experimental data published in ChEMBL document CHEMBL1201862, “PubChem BioAssay data set” (2004).
Activity calls are given as the source filed them.

How the values were obtained:
Vero = test: cells; assay type: functional; details: Chlorocebus sabaeus
HEK293 = test: EBV LMP1 TES2 canonical NF-kB signalling blockers – cell-based, HEK293, luciferase, cherry-pick, dose response (AID 588343); assay type: functional, Homo sapiens; details: Homo sapiens, HEK293
[1] = biological target: FAD-linked sulfhydryl oxidase ALR (Homo sapiens, UniProt P55789); test: ALR-catalysed DTT oxidation blockers – biochemical, H2O2 detection, luminescence, cherry-pick, dose response (AID 493248)
H9c2 = test: cells; assay type: functional, cell-based; details: Rattus norvegicus, H9c2, Myocardium
[2] = biological target: T1, Rac GTPase-activating protein 1 (Homo sapiens, UniProt Q9H0H5); test: blockers of MgcRacGAP-driven Rac1 GTP hydrolysis – biochemical, ADP Hunter fluorescence, primary and confirmatory, confirmation (AID 624330); assay type: functional
T1 sequence (Q9H0H5 whole entry): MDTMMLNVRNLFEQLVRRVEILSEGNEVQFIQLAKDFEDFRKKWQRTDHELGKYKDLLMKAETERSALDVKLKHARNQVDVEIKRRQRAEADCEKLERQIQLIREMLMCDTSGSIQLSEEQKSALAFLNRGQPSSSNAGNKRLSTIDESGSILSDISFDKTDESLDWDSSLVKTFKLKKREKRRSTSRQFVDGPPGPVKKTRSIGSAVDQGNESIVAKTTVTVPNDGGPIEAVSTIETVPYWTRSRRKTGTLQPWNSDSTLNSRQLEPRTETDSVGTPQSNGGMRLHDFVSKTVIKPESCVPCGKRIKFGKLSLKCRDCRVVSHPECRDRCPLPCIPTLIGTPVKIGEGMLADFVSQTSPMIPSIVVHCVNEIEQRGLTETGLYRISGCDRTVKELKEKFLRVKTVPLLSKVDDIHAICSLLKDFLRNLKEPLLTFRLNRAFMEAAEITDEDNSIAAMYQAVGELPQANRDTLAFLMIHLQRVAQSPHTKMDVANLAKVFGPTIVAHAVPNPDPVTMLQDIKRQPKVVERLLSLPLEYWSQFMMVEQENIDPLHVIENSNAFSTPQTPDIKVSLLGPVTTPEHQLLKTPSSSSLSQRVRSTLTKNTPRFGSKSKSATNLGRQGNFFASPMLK

[3] = test system: Streptococcus sp. 'group A'; test: Streptococcus pyogenes SK(-)GAS viability under kanamycin – luminescence, BacTiterGlo, confirmation, counter-screen for streptokinase expression inhibitor project, dose response (AID 1900); assay type: functional, organism-based
Streptokinase A = biological target: T2, Streptokinase A (Streptococcus pyogenes serotype M1, UniProt P10520); test: viability-normalized secreted streptokinase activity reduction – plasminogen activation absorbance, OD405, dose response (AID 1914); assay type: functional, Streptococcus pyogenes M1 GAS;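 further: secreted streptokinase activity via plasminogen activation per viability signal from cell pellet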
T2 sequence (P10520 whole entry): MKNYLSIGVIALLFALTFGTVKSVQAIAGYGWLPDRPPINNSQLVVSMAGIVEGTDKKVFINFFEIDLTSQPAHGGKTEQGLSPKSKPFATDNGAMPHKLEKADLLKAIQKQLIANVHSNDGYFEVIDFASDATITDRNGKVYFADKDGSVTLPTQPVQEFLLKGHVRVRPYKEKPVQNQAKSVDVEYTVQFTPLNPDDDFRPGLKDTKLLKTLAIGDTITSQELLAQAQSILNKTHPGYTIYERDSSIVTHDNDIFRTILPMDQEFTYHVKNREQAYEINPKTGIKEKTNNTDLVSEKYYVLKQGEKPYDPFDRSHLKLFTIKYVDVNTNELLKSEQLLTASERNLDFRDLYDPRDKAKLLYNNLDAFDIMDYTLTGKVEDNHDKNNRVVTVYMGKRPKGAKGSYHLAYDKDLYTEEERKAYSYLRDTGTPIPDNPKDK

Streptococcus = test: GAS UMAA2166 growth inhibition – luminescence, BacTiterGlo, counter-screen for streptokinase expression inhibitor project, dose response (AID 1915); assay type: functional, organism-based;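 further: potency for reduction of bacterial viability or growth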
BJ [4] = test: BJ-TERT fibroblast viability loss – cell-based, RAS-independent, luminescence, dose response (AID 1933); assay type: functional; details: Homo sapiens
BJ [5] = test: cells; assay type: functional, cell-based; details: Homo sapiens
[6] = biological target: Luciferin 4-monooxygenase (Photinus pyralis, UniProt P08659); test: inhibition of purified Photinus pyralis luciferase – biochemical, luminescence, dose response (AID 1891)
[7] = Luminescence Cell-Based Dose Confirmation HTS to Identify Inhibitors of Platelet Dense Granule Release. [Related pubchem assays: 1663 (Primary HTS), 1678 (Summary of Project)]; assay type: functional
BJ [8] = test: BJ-TERT-LT-ST fibroblast viability loss – cell-based, RAS-independent, luminescence, dose response (AID 1935); assay type: functional; details: Homo sapiens;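 further: BJ fibroblasts immortalized with TERT plus LT and ST oncogenes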
[9] = DRD fibroblast viability loss – cell-based, non-viral oncogenic, luminescence, dose response (AID 1934); assay type: functional; details: Homo sapiens
[10] = NIH-3T3 fibroblast cytotoxicity, dose response, cytotoxicity control, cell-based, fluorescence, Alamar Blue, secondary assay (AID 2327); assay type: functional;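 further: NIH-3T3 mouse fibroblasts cultured with fluconazole at 8 µg/mL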
Cytochrome P450 2C19 = Cytochrome P450 2C19 (Homo sapiens, UniProt P33261); test: Cytochrome panel assay with activity outcomes. Panel member name: p450-cyp2c19 Compounds with AC50 equal or less than 10 uM are considered active; assay type: functional; details: read-out: AC50
Cytochrome P450 2D6 = Cytochrome P450 2D6 (Homo sapiens, UniProt P10635);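 further: CYP2D6 member of a cytochrome P450 panel assay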
Cytochrome P450 2C9 = Cytochrome P450 2C9 (Homo sapiens, UniProt P11712)
Sequence of Cytochrome P450 2C9 (P11712 whole entry): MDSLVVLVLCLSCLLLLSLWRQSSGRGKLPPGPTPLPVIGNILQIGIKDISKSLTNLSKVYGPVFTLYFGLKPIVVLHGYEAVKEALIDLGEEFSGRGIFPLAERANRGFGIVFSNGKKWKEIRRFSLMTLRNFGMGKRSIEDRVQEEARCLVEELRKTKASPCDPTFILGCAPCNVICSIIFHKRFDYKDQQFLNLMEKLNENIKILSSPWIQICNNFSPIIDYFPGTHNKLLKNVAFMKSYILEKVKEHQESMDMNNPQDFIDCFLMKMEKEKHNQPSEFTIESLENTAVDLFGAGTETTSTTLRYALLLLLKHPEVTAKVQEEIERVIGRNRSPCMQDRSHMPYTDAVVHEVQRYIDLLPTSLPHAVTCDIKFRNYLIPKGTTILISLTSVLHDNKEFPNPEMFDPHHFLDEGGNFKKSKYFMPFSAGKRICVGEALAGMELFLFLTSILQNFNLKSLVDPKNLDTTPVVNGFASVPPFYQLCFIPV

Sequence of FAD-linked sulfhydryl oxidase ALR (P55789 whole entry): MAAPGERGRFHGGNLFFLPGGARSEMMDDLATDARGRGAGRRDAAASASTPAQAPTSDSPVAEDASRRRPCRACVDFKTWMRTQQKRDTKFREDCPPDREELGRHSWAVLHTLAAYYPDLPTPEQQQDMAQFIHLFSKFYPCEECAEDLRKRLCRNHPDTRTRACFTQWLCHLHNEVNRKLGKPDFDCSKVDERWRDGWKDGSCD
Sequence of Cytochrome P450 2D6 (P10635 whole entry): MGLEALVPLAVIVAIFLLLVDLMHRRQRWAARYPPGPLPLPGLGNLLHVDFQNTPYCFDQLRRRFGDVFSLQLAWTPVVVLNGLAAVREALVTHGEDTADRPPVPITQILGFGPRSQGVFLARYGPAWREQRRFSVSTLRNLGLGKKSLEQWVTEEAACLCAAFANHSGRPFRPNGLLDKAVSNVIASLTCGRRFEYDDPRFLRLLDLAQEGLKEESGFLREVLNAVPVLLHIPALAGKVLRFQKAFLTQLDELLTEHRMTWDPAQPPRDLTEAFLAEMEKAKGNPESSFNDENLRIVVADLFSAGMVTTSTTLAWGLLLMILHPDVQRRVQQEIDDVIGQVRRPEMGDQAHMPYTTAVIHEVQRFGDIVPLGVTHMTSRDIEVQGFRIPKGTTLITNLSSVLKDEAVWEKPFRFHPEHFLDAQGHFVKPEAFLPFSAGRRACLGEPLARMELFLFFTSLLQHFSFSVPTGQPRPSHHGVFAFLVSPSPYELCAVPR
Sequence of Cytochrome P450 2C19 (P33261 whole entry): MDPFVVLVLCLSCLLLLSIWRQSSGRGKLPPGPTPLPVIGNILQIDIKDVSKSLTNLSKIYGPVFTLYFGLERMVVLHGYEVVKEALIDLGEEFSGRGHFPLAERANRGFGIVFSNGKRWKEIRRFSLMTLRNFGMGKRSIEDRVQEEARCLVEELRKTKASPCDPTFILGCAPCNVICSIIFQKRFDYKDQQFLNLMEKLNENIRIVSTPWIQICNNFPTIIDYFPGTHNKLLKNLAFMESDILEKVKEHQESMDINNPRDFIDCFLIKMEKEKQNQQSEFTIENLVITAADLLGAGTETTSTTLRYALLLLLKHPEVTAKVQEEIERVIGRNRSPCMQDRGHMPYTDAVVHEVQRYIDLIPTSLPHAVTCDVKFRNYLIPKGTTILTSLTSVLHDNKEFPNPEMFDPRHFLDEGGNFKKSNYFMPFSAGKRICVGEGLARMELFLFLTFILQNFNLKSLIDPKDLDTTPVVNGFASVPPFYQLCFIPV
Sequence of Luciferin 4-monooxygenase (P08659 whole entry): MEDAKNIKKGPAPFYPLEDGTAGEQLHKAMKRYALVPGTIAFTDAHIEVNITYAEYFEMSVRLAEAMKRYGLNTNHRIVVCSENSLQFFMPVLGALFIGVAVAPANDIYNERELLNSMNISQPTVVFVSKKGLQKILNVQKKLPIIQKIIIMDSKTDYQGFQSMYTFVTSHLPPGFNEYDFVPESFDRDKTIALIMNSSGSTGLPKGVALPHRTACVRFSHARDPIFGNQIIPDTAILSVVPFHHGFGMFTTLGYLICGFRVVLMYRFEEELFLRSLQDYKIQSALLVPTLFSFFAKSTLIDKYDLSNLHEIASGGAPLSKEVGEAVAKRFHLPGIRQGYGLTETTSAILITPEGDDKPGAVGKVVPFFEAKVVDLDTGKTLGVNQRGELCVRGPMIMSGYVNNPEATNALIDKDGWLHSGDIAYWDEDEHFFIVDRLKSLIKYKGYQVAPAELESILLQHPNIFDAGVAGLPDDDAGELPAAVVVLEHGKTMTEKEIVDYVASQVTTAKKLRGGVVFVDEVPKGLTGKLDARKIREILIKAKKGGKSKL

## CCOC(=O)c1oc2ccc(S(=O)(=O)n3nc(-c4ccc(Cl)cc4)cc3N)cc2c1C
Vero
  CC50: > 25 µM (active)

## Cc1cccc(NC(=O)c2cnc3ccccn3c2=O)c1
HEK293
  AC50: 2.26 µM (active)

## Cc1cc(Oc2ncccc2[N+](=O)[O-])c2cc(Cl)ccc2n1
[1]
  AC50: 0.409 µM (active)

## COc1ccc(NCc2cc3ccccc3nc2O)cc1
H9c2
  IC50: > 79 µM (inactive)
[2]
  IC50: 94.7 µM (active)

## O=C(NN/C=C1\C(=O)N(c2ccccc2Cl)C(=O)c2ccccc21)C1COc2ccccc2O1 (stereo not given)
[3]
  EC50: 6.64 µM (active)
Streptokinase A
  EC50: > 150 µM (not active)
Streptococcus
  EC50: 7.4 µM (active)
H9c2
  IC50: 17.2 µM (active)

## OC1CCN(c2c3c(nc4cc(-c5cccc(F)c5)nn24)CCCC3)CC1
H9c2
  IC50: > 79 µM (inactive)

## Nc1cc2sc(-c3ccc(C(=O)O)cc3)nc2cc1Cl
BJ [4]
  EC50: 20.4 µM (active)
BJ [5]
  EC50: 17 µM (active)
[6]
  EC50: 0.441 µM (active)
[7]
  EC50: 1.32 µM (active)
BJ [8]
  EC50: > 150 µM (inconclusive)
[9]
  EC50: 15.4 µM (active)

## COc1cccc(Oc2cnc(N)nc2-c2ccc(OC)cc2O)c1
BJ [4]
  EC50: 17.9 µM (inconclusive)
BJ [5]
  EC50: 27.6 µM (active)
BJ [8]
  EC50: 67.1 µM (active)
[9]
  EC50: 10.9 µM (active)

## O=C(CN1C(=O)CCC1=O)NNc1ccc2ccccc2c1
[10]
  EC50: 3.62 µM (active)
[1]
  AC50: 0.09 µM (active)

## COc1cc(OC)cc(C(=O)Nc2ccc(N3CCN(C(=O)c4cccs4)CC3)cc2)c1
BJ [4]
  EC50: 14.9 µM (active)
BJ [5]
  EC50: 61.2 µM (active)
BJ [8]
  EC50: > 150 µM (inconclusive)
[9]
  EC50: 19.5 µM (active)

## CCCCCCCCCCCCCCCC(=O)NC[C@@H](COP(=O)([O-])OCC[N+](C)(C)C)OCC
Cytochrome P450 2C19
  AC50: 39.8 µM (inconclusive)
Cytochrome P450 2D6
  AC50: 31.6 µM (inconclusive)
Cytochrome P450 2C9
  AC50: inconclusive

## CC(OC(=O)c1cc(-c2cccnc2)nc2ccccc12)C(=O)Nc1ccc2ccccc2c1 (stereo not given)
H9c2
  IC50: > 79 µM (inactive)

## COc1cc(/C=C(\C#N)c2nc3c(s2)CC(C)CC3)ccc1O (stereo not given)
Cytochrome P450 2C19
  AC50: 39.8 µM (inconclusive)
Cytochrome P450 2D6
  AC50: 28.2 µM (inconclusive)
Cytochrome P450 2C9
  AC50: inconclusive

## COc1cccc(NC(=O)c2oc3ccc(S(=O)(=O)N4CCOCC4)cc3c2C)c1
H9c2
  IC50: > 79 µM (inactive)

## CCn1c2ccccc2c2nc3cc(OC)c(OC)cc3nc21
H9c2
  IC50: > 79 µM (inactive)
